# US10857197B2, “Treatment of HMGB1-mediated inflammation” (The Feinstein Institue for Medical Research, priority 2014, dated 2020)
# Residue numbers refer to the chain shown, from its start. Names and notes keep the numbering of the source.
# B1: H2S-modified HMGB1: HMGB1 with cysteine modified by H2S (NaSH) (protein, UniProt P09429 1-215, looked up)
# High mobility group protein B1: MGKGDPKKPRGKMSSYAFFVQTCREEHKKKHPDASVNFSEFSKKCSERWKTMSAKEKGKFEDMAKADKARYEREMKTYIPPKGETKKKFKDPNAPKRPPSAFFLFCSEYRPKIKGEHPGLSIGDVAKKLGEMWNNTAADDKQPYEKKAAKLKEKYEKDIAAYRAKGKPDAAKKGVVKAEKSKKKKEEEEDEEDEEDEEEEEDEEDEDEEEDDDDE
# modifications: cysteine modified by H2S
# B2: fully reduced HMGB1: HMGB1 with all cysteine residues reduced (protein)
# chain: B1 High mobility group protein B1 with E189D, D202E
# B3: sulfonyl HMGB1: HMGB1 with all cysteines terminally oxidized (protein)
# chain: B1 High mobility group protein B1 with E189D, D202E
# Legend:
# [1] = 500 μg/mouse i.p. at surgery, 6 h
# [2] = tested on: Poly I:C, S100A12, LPS, PGN and CpG DNA-mediated TNF release, primary human macrophages; conditions: 16 h
# [3] = tested on: thioglycollate-elicited peritoneal mouse macrophages; test: HMGB1-induced cytokine release, mouse peritoneal macrophages (cytokine Ab array); format: cell-based; conditions: HMGB1 1 μg/ml, peptide 50 μg/ml, 16 h
# Protocol: (§1) Cell isolation and culture. […] […]. TNF released was measured by ELISA.
# (§2) Cytokine and NF-κB measurements. […] Twenty two cytokines or chemokines were determined simultaneously.
# [4] = tested on: HMGB1-induced TNF release, primary human macrophages; test: HMGB1-induced TNF release in primary human macrophages (ELISA); format: cell-based; conditions: HMGB1 1 μg/ml, 16 h
# [5] = Cecal ligation and puncture (CLP) sepsis model; format: in vivo; conditions: 50 or 500 μg/mouse i.p. once a day for 4 days from 24 h after CLP
# From the text: Survival was monitored for 2 weeks.
# [6] = tested on: LPS-stimulated primary human macrophages; test: LPS-stimulated cytokine/chemokine release, primary human macrophages (cytokine Ab array); format: cell-based; conditions: LPS 2 ng/ml, peptide 50 μg/ml, 16 h
# Protocol: as §2
# [7] = Acetaminophen (APAP) hepatic toxicity model; format: in vivo, mouse
# Protocol: For the acetaminophen (APAP) hepatic toxicity model, three sets of experiments were conducted. In all experiments, mice were routinely fasted overnight and received intraperitoneal (IP) injection of APAP (350 mg/kg for survival studies and 400 mg/kg for serum measurements when mice were euthanized at 24 h post-APAP) as previous described. […] Mice had APAP injection and were euthanized 24 hours later (for serum measurements) or monitored for 2 weeks (for survival studies). […] In survival experiments, mice had APAP injection and received anti-HMGB1 antibodies (5 μg/mouse, IP, once daily for 4 days followed by two additional doses once every other day beginning at 2 hours post-APAP). Irrelevant non-immune IgG was used as controls. For serum measurements, mice subjected to APAP injection and received injection of monoclonal anti-HMGB1 antibody (5 μg/mouse, injected IP at 2 and 7 hours post-APAP) and euthanized at 24 hours post-APAP. The third set of experiments was used to assess the efficacy of P5779 in APAP model in wild type mice. […] Hepatotoxicity was determined by serum levels of glutamate dehydrogenase (GLDH), alanine aminotransferease (ALT) and aspartate aminotransferase (AST) as described previously. Antoine et al., Hepatology 58:777-787 (2013).
# Histological evaluation. […] sections were stained with hematoxylin and eosin.
# HMGB1 = target: T1, HMGB1 (Rattus norvegicus, UniProt P63159); test: SPR binding of peptide to HMGB1 coated on the chip; conditions: absence of MD2
# T1 sequence (P63159 1-215): B1 High mobility group protein B1 with E189D, D202E
# [8] = tested on: LPS-induced systemic cytokine levels; test: LPS injection in mice, serum TNF and IL-6; format: in vivo; conditions: LPS 8 mg/kg i.p., peptide 500 μg/mouse i.p., 90 minutes
# Protocol: as §2
# human TLR4 = human TLR4 (Homo sapiens, UniProt O00206); test: SPR binding to TLR4 coated on the chip
# human MD2 = target: T2, human MD2 (Homo sapiens, UniProt Q9Y6Y9); test: Surface plasmon resonance (BIAcore) binding to human MD2; conditions: SPR
# T2 sequence (Q9Y6Y9 19-160): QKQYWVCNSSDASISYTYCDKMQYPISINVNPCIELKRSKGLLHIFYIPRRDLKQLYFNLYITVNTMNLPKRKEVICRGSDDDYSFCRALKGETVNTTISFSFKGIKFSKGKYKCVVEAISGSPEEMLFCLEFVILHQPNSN
# RAW 264.7 cells = test: TNF release from RAW 264.7 cells stimulated with HMGB1 isoforms; format: cell-based, murine; conditions: 1 μg/ml, 16 h
# Protocol: as §1, §2
# human TLR4, sequence (O00206 24-839): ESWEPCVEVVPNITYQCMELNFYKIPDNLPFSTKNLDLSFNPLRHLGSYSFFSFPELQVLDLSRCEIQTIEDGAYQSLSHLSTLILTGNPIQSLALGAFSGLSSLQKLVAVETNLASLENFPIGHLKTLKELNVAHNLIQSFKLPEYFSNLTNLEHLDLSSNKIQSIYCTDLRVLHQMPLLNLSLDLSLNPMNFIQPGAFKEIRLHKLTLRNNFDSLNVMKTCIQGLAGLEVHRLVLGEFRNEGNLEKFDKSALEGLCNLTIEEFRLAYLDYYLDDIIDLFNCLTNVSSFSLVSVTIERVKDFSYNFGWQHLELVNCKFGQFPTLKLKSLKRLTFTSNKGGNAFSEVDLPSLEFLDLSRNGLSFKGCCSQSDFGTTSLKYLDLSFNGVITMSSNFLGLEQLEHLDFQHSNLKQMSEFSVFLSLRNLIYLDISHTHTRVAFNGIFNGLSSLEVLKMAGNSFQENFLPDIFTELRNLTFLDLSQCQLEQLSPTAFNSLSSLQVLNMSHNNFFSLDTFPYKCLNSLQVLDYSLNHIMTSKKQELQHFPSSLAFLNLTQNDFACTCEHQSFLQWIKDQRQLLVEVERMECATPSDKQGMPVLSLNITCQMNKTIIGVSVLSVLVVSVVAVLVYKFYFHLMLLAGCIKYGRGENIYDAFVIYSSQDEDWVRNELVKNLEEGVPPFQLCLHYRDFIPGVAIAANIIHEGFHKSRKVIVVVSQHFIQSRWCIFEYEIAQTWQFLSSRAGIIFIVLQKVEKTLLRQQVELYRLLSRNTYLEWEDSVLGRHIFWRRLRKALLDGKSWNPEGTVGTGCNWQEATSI
molecule,measurement,setting,value
"N[C@@H](Cc1ccccc1)C(=O)N[C@@H](CO)C(=O)N[C@@H](CO)C(=O)N[C@@H](CCC(=O)O)C(=O)O [P5779, FSSE]","hepatic serum enzyme release (AST, ALT) and neutrophil infiltration",[1],significantly blunted
same,"inhibition of TNF release mediated by Poly I:C, S100A12, LPS, PGN and CpG DNA",[2],failed to inhibit
same,"HMGB1-induced release of IL-6, IL-12p40/p70, RANTES and MCP-1",[3],significantly reduced
same,inhibition of HMGB1-induced TNF release (qualitative),[4],significantly inhibited
same,survival after CLP vs scrambled peptide,[5],significantly and dose-dependently improved survival rates
same,LPS-stimulated cytokine/chemokine release in vitro,[6],did not inhibit
same,survival after APAP,"[7]; 500 μg/mouse i.p. once a day for 5 days, 2 weeks",improved survival
same,"APAP-induced elevation of hepatic serum enzymes (AST, ALT), TNF, liver necrosis","[7]; 50 or 500 μg/mouse i.p. at 2 and 7 h post-APAP, 24 h",dose-dependently reduced
same,binding to HMGB1,HMGB1,failed to bind
same,"LPS-induced systemic cytokine levels (serum TNF, IL-6)",[8],failed to attenuate
same,binding to TLR4,"human TLR4; SPR, absence of MD2",failed to bind
"SFSE (MD2 binding protein) [control peptide, reference compound]",inhibition of HMGB1-induced TNF release (qualitative),[4],abolished the capacity to inhibit HMGB1-induced TNF release
same,MD2-binding capacity (qualitative),human MD2; peptides 100 nM,abolished the MD2-binding capacity
disulfide HMGB1: recombinant HMGB1 with Cys23-Cys45 disulfide bond and reduced Cys106,TNF release induced by HMGB1 isoform,RAW 264.7 cells,induced TNF secretion
same,Kd,"human MD2; read-out: apparent Kd of HMGB1 binding to MD2, MD2 or HMGB1 immobilized on the chip",12 nM
same,HMGB1 binding to TLR4 in the absence of MD2,human TLR4; disulfide HMGB1 100 nM,incapable of directly binding to TLR4
B1,TNF release induced by HMGB1 isoform,RAW 264.7 cells,failed to induce TNF release
B2,TNF release induced by HMGB1 isoform,RAW 264.7 cells,failed to induce TNF release
B3,TNF release induced by HMGB1 isoform,RAW 264.7 cells,failed to induce TNF release
